Results published in PubChem BioAssay AID256 (DTP/NCI, 2004).
Toxic doses and inconclusive results are not listed. The calls were made as follows: active = survival T/C of 150% or more; inactive = T/C below 125% in these data.

System: CD2F1 mice, L1210 leukemia ip, survival T/C
Test: NCI In Vivo Anticancer Drug Screen. Data for tumor model L1210 Leukemia (intraperitoneal) in CD2F1 (CDF1) mice
Settings: endpoint: mean survival time, higher = longer survival
In short: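 Read-out first: treated-group measurement over vehicle-control measurement, expressed as a ratio. Animals bore a transplanted tumor line and were dosed with compound or vehicle.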

[1] = dose: 100.0 mg/kg/injection, schedule: Q01DX001 (ip), vehicle: saline
[2] = dose: 100.0 mg/kg/injection, schedule: Q01DX009 (ip), vehicle: saline
[3] = dose: 200.0 mg/kg/injection, schedule: Q01DX001 (ip), vehicle: saline
[4] = dose: 200.0 mg/kg/injection, schedule: Q01DX009 (ip), vehicle: saline
[5] = dose: 400.0 mg/kg/injection, schedule: Q01DX001 (ip), vehicle: saline
[6] = dose: 400.0 mg/kg/injection, schedule: Q01DX009 (ip), vehicle: saline
[7] = dose: 100.0 mg/kg/injection, schedule: Q04DX003 (ip), vehicle: saline with Tween-80
[8] = dose: 100.0 mg/kg/injection, schedule: Q04DX002 (ip), vehicle: saline
[9] = dose: 200.0 mg/kg/injection, schedule: Q04DX002 (ip), vehicle: saline
[10] = dose: 400.0 mg/kg/injection, schedule: Q04DX002 (ip), vehicle: saline
[11] = dose: 200.0 mg/kg/injection, schedule: Q04DX003 (ip), vehicle: saline with Tween-80

Measured: T/C

CCN(CCP(c1ccccc1)c1ccccc1)CCP(c1ccccc1)c1ccccc1
inactive: dose: 150.0 mg/kg/injection, schedule: Q01DX001 (ip), vehicle: other 110 % of control | dose: 300.0 mg/kg/injection, schedule: Q01DX001 (ip), vehicle: other 115 % of control

CNC(C)C(O)c1ccccc1 (stereo not drawn)
inactive: dose: 50.0 mg/kg/injection, schedule: Q01DX009 (ip), vehicle: saline with Tween-80 100 % of control | dose: 100.0 mg/kg/injection, schedule: Q01DX009 (ip), vehicle: saline with Tween-80 97 % of control

OCC1OC(Oc2ccc(O)cc2)C(O)C(O)C1O (stereo not drawn)
inactive: dose: 50.0 mg/kg/injection, schedule: Q01DX009 (ip), vehicle: saline 103 % of control | [1] 101 % of control | [2] 103 % of control | [3] 117 % of control | [4] 95 % of control | [5] 101 % of control | [6] 100 % of control

COC1CCC2=C(C1)C(=O)CC1c3ccccc3CN21 (stereo not drawn)
inactive: [7] 97 % of control

N#CC(C#N)=NNc1ccc(S(=O)(=O)O)cc1
inactive: [2] 93 % of control | [4] 95 % of control | [6] 95 % of control

O=[N+]([O-])c1cc(S(=O)(=O)O)cc(S(=O)(=O)O)c1O
inactive: [8] 100 % of control | [9] 107 % of control | [10] 103 % of control

CC1=NCCN1CCN
inactive: [8] 91 % of control | [9] 109 % of control | [10] 113 % of control

NC(=O)NC(=O)C1CCCCC1C(=O)O (stereo not drawn)
inactive: [1] 103 % of control | [3] 101 % of control | [5] 109 % of control

Nn1c2ccccc2c2ccccc21
inactive: dose: 75.0 mg/kg/injection, schedule: Q01DX001 (ip), vehicle: saline 98 % of control | dose: 150.0 mg/kg/injection, schedule: Q01DX001 (ip), vehicle: saline 106 % of control

NC(=S)c1cccc2ccccc12
inactive: dose: 100.0 mg/kg/injection, schedule: Q04DX002 (ip), vehicle: Klucel (hydroxypropylcellulose) (HPC) 105 % of control | dose: 200.0 mg/kg/injection, schedule: Q04DX002 (ip), vehicle: Klucel (hydroxypropylcellulose) (HPC) 98 % of control | dose: 400.0 mg/kg/injection, schedule: Q04DX002 (ip), vehicle: Klucel (hydroxypropylcellulose) (HPC) 110 % of control

C1=C[N-]c2c3c(ccc2=C1)=CC=C[N-]3.C1=C[N-]c2c3c(ccc2=C1)=CC=C[N-]3.[Cl][Ru][Cl]
inactive: dose: 3.13 mg/kg/injection, schedule: Q04DX003 (ip), vehicle: water 90 % of control | dose: 6.25 mg/kg/injection, schedule: Q04DX003 (ip), vehicle: water 90 % of control | dose: 12.5 mg/kg/injection, schedule: Q04DX003 (ip), vehicle: water 88 % of control

Nc1ncnc2c(C3OC(CO)C(O)C3O)[nH]nc12 (stereo not drawn)
inactive: dose: 6.25 mg/kg/injection, schedule: Q01DX009 (ip), vehicle: saline with Tween-80 108 % of control | dose: 12.5 mg/kg/injection, schedule: Q01DX009 (ip), vehicle: saline with Tween-80 120 % of control | dose: 25.0 mg/kg/injection, schedule: Q01DX009 (ip), vehicle: saline with Tween-80 113 % of control | [7] 101 % of control | [11] 109 % of control

Cn1c(CC(O)(C(F)(F)F)C(F)(F)F)cc2ccccc21
inactive: dose: 100.0 mg/kg/injection, schedule: Q01DX001 (ip), vehicle: other 106 % of control | dose: 200.0 mg/kg/injection, schedule: Q01DX001 (ip), vehicle: other 92 % of control | dose: 400.0 mg/kg/injection, schedule: Q01DX001 (ip), vehicle: other 95 % of control

Fc1ccc(-c2ccc(F)cc2)cc1
inactive: [7] 101 % of control | [11] 98 % of control | dose: 400.0 mg/kg/injection, schedule: Q04DX003 (ip), vehicle: saline with Tween-80 98 % of control
